Measured values from US20090306159A1, “Inhibition of Intermediate-Conductance Calcium Activated Potassium Channels in the Treatment and/or Prevention of Atherosclerosis” (The Regents of the University, priority 2005, published 2009).

Columns and labels:
[1] = system: human coronary artery smooth muscle cells (HCSMCs); assay: Cell proliferation assay (cell count with hemocytometer) in PDGF-stimulated HCSMCs; format: cell-based; conditions: for cell number of HCSMCs: 48 hours, n=7
Description: (§1) Cell proliferation assays: Cell proliferation assays were performed as previously reported. Briefly, quiescent HCSMCs seeded at a density of 4×10^4/well in 6-well plates were stimulated by 20 ng/mL PDGF in the presence or absence of 10^−7 M TRAM-34, a selective IKCa blocker. Forty eight hours after stimulation, the number of cells was counted with a hemocytometer (MARIENFELD, Lauda-Konigshofen Germany). In another set of experiments, a BrdU cell proliferation assay was also performed with quiescent cells in 96-well plates at a density of 1×10^4/well according to the manufacturer's instructions (Colorimetric Cell Proliferation ELISA, Roche, Penzberg Germany). In this study, BrdU (10^−5 M in medium) was applied 24 hours prior to the measurements.

[2] = system: human coronary artery smooth muscle cells (HCSMCs); assay: BrdU cell proliferation assay (DNA synthesis) in HCSMCs; format: cell-based
Description: as §1

[3] = system: c-fos; assay: Western blot of c-fos expression in HCSMCs; format: cell-based, human; conditions: PDGF + TRAM-34
Description: Western blot analysis: Total cell lysates or membrane fractions were harvested and protein samples separated on an electrophoresis gel by SDS-PAGE and then transferred to a PVDF membrane. The gels were stained in Coomassie blue to confirm equal protein loading. Membranes were blocked with 10% nonfat dried milk, blotted with primary antibodies (BKCa α-subunit [Affinity BioReagents], c-fos [Santa Cruz, Inc.] and IKCa) and subsequently probed with a horseradish peroxidase-labeled donkey anti-rabbit antibody (1:5,000˜10,000 [Santa Cruz, Inc.]). The bound antibody was detected by chemiluminescence (ECL Plus, Amersham). The polyclonal primary antibody against human and mouse IKCa was obtained from sera of rabbits immunized using oligopeptides with following amino acids sequences; H-LNASYRSIGALNQVRC-NH2 (S4-5 of human and mouse IKCa).

[4] = system: human coronary artery smooth muscle cells (HCSMCs); assay: Transwell cell migration assay in HCSMCs; format: cell-based
Description: Cell migration assay: A Cell migration assay was carried out with the Transwell system (Corning, Acton, Mass.) as previously reported. Briefly, cells (3×10^5 cells/mL) were seeded onto the upper chamber of Transwells, and the lower chamber was filled with serum-free medium containing 20 ng/ml PDGF. TRAM-34 (10^−8˜10^−7 M) was added to both chambers. After 8-hour stimulation, migrated cells were fixed and stained with the Diff-Quick Stain (IMEB Inc. Chicago, Ill.) and counted under a microscope.

[5] = system: ApoE knockout mice; assay: Development of atherosclerosis in ApoE knockout mice on high-cholesterol diet (long-term IKCa1 blockade); format: in vivo, mouse; conditions: ApoE KO mice, long-term TRAM-34
Description: Mouse treatment: C57BL/6J male mice (wild type [WT] n=11 and ApoE deficient type [EKO] n=38, The Jackson Laboratory) were used. EKO mice were weaned at 4 weeks of age onto a high-cholesterol diet (1.3% cholesterol; TD 96121, Harian/Teklad) and treated with daily subcutaneous injection of TRAM-34 (120 mg/kg/day) or vehicle (peanut oil) for 12 weeks. Littermate war mice were used as the control group in the experiments. Mice were provided diet and water ad libitum and maintained on a 12-hour light/dark cycle. All animal experiments were conducted according to the Guidelines for Animal Experiments at Medical College of Wisconsin.
Histological analysis of atherosclerosis in mouse aortas: Isolation of aortas and quantification of atherosclerosis were performed as previously described. Briefly, aortas (from aortic arch to iliac bifurcation) were opened longitudinally, pinned onto a silicon-coated dish, fixed with 4% paraformaldehyde, and stained in 1.0% (v/w) Sudan III solution (The Science Company, Denver, Colo.). Images were acquired using a digital camera (C-755, Minolta), and the surface area of atherosclerotic lesions was measured as the percentage of total area of the opened aorta using imaging software, MetaMorph (Universal Imaging Corp).

[6] = Body weight, heart weight, blood pressure, heart rate, plasma cholesterol and deaths in treated mice; format: in vivo, mouse
Description: Mouse treatment: C57BL/6J male mice (wild type [WT] n=11 and ApoE deficient type [EKO] n=38, The Jackson Laboratory) were used. […] Littermate war mice were used as the control group in the experiments. Mice were provided diet and water ad libitum and maintained on a 12-hour light/dark cycle. All animal experiments were conducted according to the Guidelines for Animal Experiments at Medical College of Wisconsin.
Hemodynamic analysis of mice: At 16 weeks of age, mice were anesthetized, and right femoral arteries were cannulated for continuous measurement of arterial pressure and heart rate (pressure transducer; Bioresearch Center, Nagoya, Japan) and recorded continuously by computer for 30 min.
Plasma lipid analysis: Plasma was obtained by centrifugation of blood and stored at −80° C. until each assay was performed. Plasma cholesterol levels were analyzed by General Medical Laboratories (Madison, Wis.).

[7] = target: BKCa (Homo sapiens, UniProt Q12791); assay: Videomicroscopy: vasodilation of human coronary arterioles to BKCa opener; conditions: endothelium-denuded human vessels, 3×10^-6 M, n=3
Chain of BKCa (Homo sapiens, UniProt Q12791) (Q12791 whole entry): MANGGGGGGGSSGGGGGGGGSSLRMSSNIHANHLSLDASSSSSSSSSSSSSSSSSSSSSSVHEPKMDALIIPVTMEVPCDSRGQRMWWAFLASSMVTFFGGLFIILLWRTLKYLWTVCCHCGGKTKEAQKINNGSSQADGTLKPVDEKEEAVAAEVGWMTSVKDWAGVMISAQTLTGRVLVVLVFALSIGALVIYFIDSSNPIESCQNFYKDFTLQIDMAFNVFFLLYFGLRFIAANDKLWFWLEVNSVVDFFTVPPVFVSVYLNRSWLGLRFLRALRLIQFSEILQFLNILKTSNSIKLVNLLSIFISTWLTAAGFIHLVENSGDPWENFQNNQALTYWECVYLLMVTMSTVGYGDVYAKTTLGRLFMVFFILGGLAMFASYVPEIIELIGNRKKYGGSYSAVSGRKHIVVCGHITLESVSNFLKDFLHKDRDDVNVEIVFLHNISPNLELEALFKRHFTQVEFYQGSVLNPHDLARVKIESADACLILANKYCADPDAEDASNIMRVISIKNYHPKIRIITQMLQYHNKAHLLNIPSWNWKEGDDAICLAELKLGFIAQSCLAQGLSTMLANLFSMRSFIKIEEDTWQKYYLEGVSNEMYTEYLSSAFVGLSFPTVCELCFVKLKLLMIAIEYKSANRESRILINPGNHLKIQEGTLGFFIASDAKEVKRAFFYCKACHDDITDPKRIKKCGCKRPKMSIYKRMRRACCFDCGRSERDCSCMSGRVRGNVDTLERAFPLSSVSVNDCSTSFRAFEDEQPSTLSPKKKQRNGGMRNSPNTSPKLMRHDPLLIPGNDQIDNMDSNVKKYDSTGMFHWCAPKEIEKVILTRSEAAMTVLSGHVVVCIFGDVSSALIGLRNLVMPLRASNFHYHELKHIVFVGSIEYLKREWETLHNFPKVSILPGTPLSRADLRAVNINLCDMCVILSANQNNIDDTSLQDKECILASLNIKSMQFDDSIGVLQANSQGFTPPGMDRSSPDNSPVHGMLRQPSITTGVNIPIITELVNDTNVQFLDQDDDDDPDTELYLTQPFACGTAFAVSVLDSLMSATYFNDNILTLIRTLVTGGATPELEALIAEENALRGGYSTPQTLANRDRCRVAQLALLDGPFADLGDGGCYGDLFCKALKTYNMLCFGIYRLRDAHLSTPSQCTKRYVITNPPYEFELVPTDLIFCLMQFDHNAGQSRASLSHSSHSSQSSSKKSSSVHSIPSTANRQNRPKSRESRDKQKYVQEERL
Chain of BKCa (Homo sapiens, UniProt Q12791) (Q16558 whole entry partner): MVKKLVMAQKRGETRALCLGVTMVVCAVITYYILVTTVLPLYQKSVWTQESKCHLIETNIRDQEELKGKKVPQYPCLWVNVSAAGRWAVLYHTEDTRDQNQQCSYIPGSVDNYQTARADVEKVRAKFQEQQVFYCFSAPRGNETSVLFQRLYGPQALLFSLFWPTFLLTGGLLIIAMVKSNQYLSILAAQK
Description: (§2) Videomicroscopy: The preparation for videomicroscopy has been previously described. Vasomotor and endothelial function was confirmed by measuring constriction to 50 mM KCl and dilation to acetylcholine (ACh, 10^−4 M, mouse vessels pressurized at 40 mmHg) or to bradykinin (10^−7 mol/L, human vessels at 60 mmHg). Vessels were preconstricted with U46619 (10^−9˜10^−8 M for mouse vessels) or ACh (10^−8˜5×10^−7 M for human vessels) to adjust tone to a level between 30% to 50% of passive diameter. […] In some experiments, endothelial cells (ECs) were denuded.
(§3) Statistical Analysis: All data are expressed as mean±SE. […] Percent dilation was calculated as the percent change from the preconstricted diameter to the passive diameter in Ca^2+-free Krebs containing 10^−4 M papaverine. Percent constriction or basal tone was determined by calculating the percent reduction in the passive diameter. To compare dose-response relationships between treatment groups, a two-way ANOVA supported by a Bonferroni post hoc test was used. Statistical comparisons of maximal percent vasodilation and basal tone under different treatments were performed by paired Student's t test. […] Statistical significance was defined as a value of P<0.05.

[8] = target: BKCa (Mus musculus, UniProt Q08460); assay: Videomicroscopy: vasodilation of mouse carotid artery segments to BKCa opener; conditions: endothelium-denuded carotid artery segments
Chain of BKCa (Mus musculus, UniProt Q08460) (Q08460 whole entry): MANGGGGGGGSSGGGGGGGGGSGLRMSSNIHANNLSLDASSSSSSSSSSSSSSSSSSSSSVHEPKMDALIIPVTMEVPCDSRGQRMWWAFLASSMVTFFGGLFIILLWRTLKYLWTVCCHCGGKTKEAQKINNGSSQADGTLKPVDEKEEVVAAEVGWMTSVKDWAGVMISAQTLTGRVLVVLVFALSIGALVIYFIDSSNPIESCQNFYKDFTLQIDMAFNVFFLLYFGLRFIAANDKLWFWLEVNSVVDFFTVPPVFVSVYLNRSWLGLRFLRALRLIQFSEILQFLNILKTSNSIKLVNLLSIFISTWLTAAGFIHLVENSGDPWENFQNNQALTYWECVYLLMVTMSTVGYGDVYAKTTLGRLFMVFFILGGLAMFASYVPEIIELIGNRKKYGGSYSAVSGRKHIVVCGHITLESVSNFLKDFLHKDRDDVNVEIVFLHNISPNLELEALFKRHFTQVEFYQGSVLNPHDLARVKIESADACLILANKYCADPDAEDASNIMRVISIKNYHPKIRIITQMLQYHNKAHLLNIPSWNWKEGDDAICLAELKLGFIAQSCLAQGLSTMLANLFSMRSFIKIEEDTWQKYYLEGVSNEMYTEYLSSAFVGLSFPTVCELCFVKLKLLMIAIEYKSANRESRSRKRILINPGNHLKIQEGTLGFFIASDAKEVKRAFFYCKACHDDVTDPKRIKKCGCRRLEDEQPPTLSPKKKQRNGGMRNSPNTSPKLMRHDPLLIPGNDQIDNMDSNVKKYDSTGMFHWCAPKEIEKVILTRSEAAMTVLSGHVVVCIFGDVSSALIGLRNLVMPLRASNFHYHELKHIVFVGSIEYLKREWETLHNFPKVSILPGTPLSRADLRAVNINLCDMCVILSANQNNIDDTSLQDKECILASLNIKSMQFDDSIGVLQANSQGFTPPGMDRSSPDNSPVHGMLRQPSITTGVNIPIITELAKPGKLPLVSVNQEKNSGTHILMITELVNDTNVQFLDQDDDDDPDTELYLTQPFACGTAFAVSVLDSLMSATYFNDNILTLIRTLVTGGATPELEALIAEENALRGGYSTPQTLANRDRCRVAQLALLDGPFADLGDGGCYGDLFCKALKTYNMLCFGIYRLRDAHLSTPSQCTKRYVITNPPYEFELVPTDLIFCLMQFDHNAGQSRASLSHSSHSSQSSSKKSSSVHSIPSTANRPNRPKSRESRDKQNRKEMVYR
Chain of BKCa (Mus musculus, UniProt Q08460) (Q8CAE3 whole entry partner): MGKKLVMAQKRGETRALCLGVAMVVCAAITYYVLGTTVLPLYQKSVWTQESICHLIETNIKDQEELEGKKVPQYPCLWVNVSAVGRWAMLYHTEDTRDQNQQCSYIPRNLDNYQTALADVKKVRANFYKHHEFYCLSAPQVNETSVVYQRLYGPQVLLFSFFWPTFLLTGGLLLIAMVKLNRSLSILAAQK
Description: as §2, §3

[9] = system: IKCa mRNA; assay: Real-time RT-PCR of IKCa mRNA in HCSMCs; format: cell-based, human; conditions: PDGF 20 ng/ml, at 6 h, n=5
Description: (sense) and [NT] (antisense); for [NT] (sense) and [NT] (antisense).

[10] = among the groups (WT, ApoE KO vehicle, ApoE KO TRAM-34)
[11] = long-term treatment, anesthetized mice

In the case of `COc1ccc(Cl)cc1C(=O)NCCc1ccc(S(=O)(=O)NC(=O)NC2CCCCC2)cc1` [Glibenclamide, reference compound], the “effect on PDGF-induced HCSMC proliferation” value ([1]; with PDGF, data not shown, n=4) is reported as “had no effect”.

In the case of `Clc1ccccc1C(c1ccccc1)(c1ccccc1)n1cccn1` [TRAM-34, 1-[(2-chlorophenyl)diphenylmethyl]-1H-pyrazole], the “cell number of HCSMCs” value ([1]; PDGF + TRAM-34 at 10^-7 M) is reported as 1.1±0.1 fold of control, the cell viability ([1]; PDGF+TRAM-34 or TRAM-34 alone, HCSMCs) is reported as “did not affect cell viability” and the “effect on HCSMC proliferation” value ([1]; in the absence of PDGF) is reported as “had no effect”. The “DNA synthesis (BrdU incorporation)” value ([2]; PDGF + TRAM-34, n=26) was 2.2±0.2 fold of control, the “effect on DNA synthesis” value ([2]; TRAM alone, no PDGF, n=6) was “had no effect” and the “PDGF-induced up-regulation of c-fos protein” value [3] was “markedly reduced”. For the same molecule, the HCSMC migration ([4]; PDGF + TRAM-34, 8-hour stimulation, n=4) was 2392 fold of control, the “accumulation of macrophages in the plaques” value [5] was “decreased” and the “nitric oxide-mediated component of endothelium-dependent vasodilation” value [5] was “restored”. For the same molecule, the “plasma level of MCP-1” value [5] was “reduced”, the “plasma level of TNF-alpha” value [5] was “reduced” and the deaths during treatment ([6]; 14-week treatment, unknown reasons, same in vehicle group) was “One mouse”. For the same molecule, the plasma cholesterol levels ([6]; ApoE KO mice, TRAM-34 vs vehicle) was “no significant difference”, the body weight [6, 10] was “no significant differences” and the heart weight [6, 10] was “no significant differences”. For the same molecule, the blood pressure [6, 11] was “unaltered” and the heart rate [6, 11] was “unaltered”.

In the case of `C=C[C@@]1(C)C=C2CC[C@@H]3[C@](C)(CCC[C@@]3(C)C(=O)O)[C@H]2CC1` [pimaric acid], the vasodilation ([7]; CAD subjects) is reported as 31±3%, the vasodilation ([7]; non-CAD subjects) is reported as 56±6% and the “% max. dilation” value ([8]; ApoE KO mice) is reported as 9±3%. The “% max. dilation” value ([8]; WT mice, 10^-5 M) was 55±10%.

With “platelet-derived growth factor-BB [PDGF]” the “cell number of HCSMCs” value ([1]; PDGF alone (20 ng/mL)) was 1.6±0.1 fold of control, the “DNA synthesis (BrdU incorporation)” value ([2]; PDGF alone, n=26) was 2.8±0.3 fold of control and the HCSMC migration ([4]; PDGF alone (20 ng/ml), 8-hour stimulation, n=10) was 32±4 fold of control. The “IKCa mRNA expression, max response” value [9] was 4.2±1.0 fold.
